Measured values taken from patent publication US12514251B2, “Fused heterocyclic compounds and their use as pest control agents” (priority 2020, dated 2026).

Tests used:
Type in all cases: in vivo
[1] = system: Plutella xylostella; assay: Plutella xylostella, leaf dip method; conditions: foliar, cabbage leaf dip, second instar larvae, 72 h after release, dead + moribund vs untreated control, read-out: percent mortality
Protocol: The leaf dip method was used for testing, wherein the required quantity of the compound was weighed and dissolved in a tube containing solvent solution. The tube was put on a vortex at 2000 rpm for 90 min for proper mixing, then diluted with 0.01% Triton-X solution to get the desired test concentration. Cabbage leaves were dipped in the compound solution for 10 seconds, shade dried for 20 min and then transferred into the cells of bioassay trays. A single second instar larva was released into each cell and the tray was covered with a lid. The bio-assay trays were then kept under laboratory conditions at a temperature of 25° C. and a relative humidity of 70%. Observations on dead, moribund and alive larvae were recorded 72 h after the release. Percent mortality was calculated by combining dead and moribund larvae and comparing the result to the one of the untreated control.

[2] = system: Helicoverpa armigera; assay: Helicoverpa armigera, diet incorporation method; conditions: third instar larvae, 96 h after release, dead + moribund vs untreated control, read-out: percent mortality
Protocol: (§1) The diet incorporation method was used, in which the required quantity of the test compound was weighed and dissolved in a tube containing solvent solution. The tube was put on a vortex at 2000 rpm for 90 min for proper mixing. Semi-synthetic diet was incorporated into this solution when the temperature was approximately 50° C. in the bioassay containers. Compound and diet were stirred thoroughly for proper mixing and allowed to cool for 30 min. The solidified diet was cut into equal pieces, and then each piece was transferred into one cell of a bio-assay tray. A single starved third instar larva was released into each of the cells of the bioassay trays and the tray was covered with a lid. The bio-assay trays were then kept under laboratory conditions at a temperature of 25° C. and a relative humidity of 70%. Observations on dead, moribund and alive larvae were recorded 96 h after the release of the larvae. Percent mortality was calculated by combining dead and moribund larvae and comparing the result to the one of the untreated control.

[3] = system: Spodoptera litura; assay: Spodoptera litura, diet incorporation method; conditions: third instar larvae, 96 h after release, dead + moribund vs untreated control, read-out: percent mortality
Protocol: as §1, with “covered with the lid. The” for “covered with a lid. The”, “release of larvae. Percent” for “release of the larvae. Percent”

For `CCS(=O)(=O)c1ccc(-n2ncn(-c3cc(Cl)cc(Cl)c3)c2=O)nc1-c1ccn2nc(C(F)(F)F)cc2n1` [Compound 8, 4-(3,5-dichlorophenyl)-2-(5-(ethylsulfonyl)-6-(2-(trifluoromethyl)pyrazolo[1,5-a]pyrimidin-5-yl)pyridin-2-yl)-2,4-dihydro-3H-1,2,4-triazol-3-one], the mortality at 300 ppm [1] was at least 70% and the mortality at 300 ppm [2] was at least 70%.

`CCS(=O)(=O)c1cc(-c2ccn3nc(C(F)(F)F)cc3n2)cnc1-n1nc2ccc(C(F)(F)F)cn2c1=O` [Compound 75, 2-(3-(ethylsulfonyl)-5-(2-(trifluoromethyl)pyrazolo[1,5-a]pyrimidin-5-yl)pyridin-2-yl)-6-(trifluoromethyl)-[1,2,4]triazolo[4,3-a]pyridin-3(2H)-one] gave a mortality at 300 ppm [1] of at least 70% and a mortality at 300 ppm [2] of at least 70%.

`CCS(=O)(=O)c1cc(OC(F)F)cnc1-c1ccn2nc(C(F)(F)F)cc2n1` [Compound 229, 5-(5-(difluoromethoxy)-3-(ethylsulfonyl)pyridin-2-yl)-2-(trifluoromethyl)pyrazolo[1,5-a]pyrimidine] gave a mortality at 300 ppm [1] of at least 70% and a mortality at 300 ppm [2] of at least 70%.

`CCS(=O)(=O)c1ccc(-n2ccc(C(F)(F)F)n2)nc1-c1ccn2nc(C(F)(F)F)cc2n1` [Compound 34, 5-(3-(ethylsulfonyl)-6-(3-(trifluoromethyl)-1H-pyrazol-1-yl)pyridin-2-yl)-2-(trifluoromethyl)pyrazolo[1,5-a]pyrimidine] gave a mortality at 300 ppm [1] of at least 70% and a mortality at 300 ppm [2] of at least 70%.

Work on `CCS(=O)(=O)c1cc(-c2ccc(Cl)cc2)cnc1-c1ccn2nc(C(F)(F)F)nc2n1` [Compound 101, 5-(5-(4-chlorophenyl)-3-(ethylsulfonyl)pyridin-2-yl)-2-(trifluoromethyl)-[1,2,4]triazolo[1,5-a]pyrimidine] yielded a mortality at 300 ppm [3] of at least 70% and a mortality at 300 ppm [1] of at least 70%.

In the case of `CCS(=O)(=O)c1ccc(-c2ccc(OC(F)(F)F)cc2)nc1-c1ccn2nc(C(F)(F)F)cc2n1` [Compound 17, 5-(3-(ethylsulfonyl)-6-(4-(trifluoromethoxy)phenyl)pyridin-2-yl)-2-(trifluoromethyl)pyrazolo[1,5-a]pyrimidine], the mortality at 300 ppm [3] is reported as at least 70% and the mortality at 300 ppm [1] is reported as at least 70%.

`CCS(=O)(=O)c1cc(-n2cc(F)cn2)cnc1-c1ccn2nc(C(F)(F)F)cc2n1` [Compound 70, 5-(3-(ethylsulfonyl)-5-(4-fluoro-1H-pyrazol-1-yl)pyridin-2-yl)-2-(trifluoromethyl)pyrazolo[1,5-a]pyrimidine] gave a mortality at 300 ppm [1] of at least 70% and a mortality at 300 ppm [2] of at least 70%.

Molecule `CCS(=O)(=O)c1ccc(-n2ncn(-c3ccc(Cl)cc3)c2=O)nc1-c1ccn2nc(C(F)(F)F)cc2n1` [Compound 7, 4-(4-chlorophenyl)-2-(5-(ethylsulfonyl)-6-(2-(trifluoromethyl)pyrazolo[1,5-a]pyrimidin-5-yl)pyridin-2-yl)-2,4-dihydro-3H-1,2,4-triazol-3-one] has a mortality at 300 ppm [1] of at least 70% and a mortality at 300 ppm [2] of at least 70%.

Molecule `CCS(=O)(=O)c1cc(-c2ccn3nc(C(F)(F)F)cc3n2)cnc1-n1cncn1` [Compound 31, 5-(5-(ethylsulfonyl)-6-(1H-1,2,4-triazol-1-yl)pyridin-3-yl)-2-(trifluoromethyl)pyrazolo[1,5-a]pyrimidine] has a mortality at 300 ppm [1] of at least 70%.

Work on `CCS(=O)(=O)c1cc(NC(=O)OC(C)(C)C)cnc1-c1ccn2nc(C(F)(F)F)cc2n1` [Compound 222, tert-butyl (5-(ethylsulfonyl)-6-(2-(trifluoromethyl)pyrazolo[1,5-a]pyrimidin-5-yl)pyridin-3-yl)carbamate] yielded a mortality at 300 ppm [1] of at least 70%.

`CCS(=O)(=O)c1cc(-c2ccc(OC(F)(F)F)cc2)cnc1-c1ncc2nc(C(F)(F)F)n(C)c2n1` [Compound 119, 2-(3-(ethylsulfonyl)-5-(4-(trifluoromethoxy)phenyl)pyridin-2-yl)-9-methyl-8-(trifluoromethyl)-9H-purine] gave a mortality at 300 ppm [1] of at least 70%.

For `CCSc1ccc(C)nc1-c1ccn2nc(C(F)(F)F)nc2n1` [Compound 187, 5-(3-(ethylthio)-6-methylpyridin-2-yl)-2-(trifluoromethyl)-[1,2,4]triazolo[1,5-a]pyrimidine], the mortality at 300 ppm [1] was at least 70%.

Work on `CCS(=O)(=O)c1ccc(C(C)C)nc1-c1ccn2nc(C(F)(F)F)cc2n1` [Compound 238, 5-(3-(ethylsulfonyl)-6-isopropylpyridin-2-yl)-2-(trifluoromethyl)pyrazolo[1,5-a]pyrimidine] yielded a mortality at 300 ppm [1] of at least 70%.

`CCS(=O)(=O)c1ccc(-n2cncn2)nc1-c1cnc2cc(C(F)(F)F)nn2c1` [Compound 54, 6-(3-(ethylsulfonyl)-6-(1H-1,2,4-triazol-1-yl)pyridin-2-yl)-2-(trifluoromethyl)pyrazolo[1,5-a]pyrimidine] gave a mortality at 300 ppm [1] of at least 70%.

With `CCS(=O)(=O)c1ccc(-n2cncn2)nc1-c1ccn2nc(C(F)(F)F)cc2n1` [Compound 3, 5-(3-(ethylsulfonyl)-6-(1H-1,2,4-triazol-1-yl)pyridin-2-yl)-2-(trifluoromethyl)pyrazolo[1,5-a]pyrimidine] the mortality at 300 ppm [1] was at least 70%.

`CCS(=O)(=O)c1ccc(-c2ccc(Cl)cc2)nc1-c1cnc2nc(C(F)(F)F)nn2c1` [Compound 47, 6-(6-(4-chlorophenyl)-3-(ethylsulfonyl)pyridin-2-yl)-2-(trifluoromethyl)-[1,2,4]triazolo[1,5-a]pyrimidine] was tested, and the mortality at 300 ppm [1] was at least 70%.

In the case of `CCS(=O)(=O)c1ccc(O)nc1-c1ccn2nc(C(F)(F)F)cc2n1` [Compound 236, 5-(ethylsulfonyl)-6-(2-(trifluoromethyl)pyrazolo[1,5-a]pyrimidin-5-yl)pyridin-2-ol], the mortality at 300 ppm [1] is reported as at least 70%.

In the case of `CCS(=O)(=O)c1cc(C=C(C)C)cnc1-c1ccn2nc(C(F)(F)F)cc2n1` [Compound 201, 5-(3-(ethylsulfonyl)-5-(2-methylprop-1-en-1-yl)pyridin-2-yl)-2-(trifluoromethyl)pyrazolo[1,5-a]pyrimidine], the mortality at 300 ppm [1] is reported as at least 70%.

With `CCS(=O)(=O)c1ccc(CC#N)nc1-c1ccn2nc(C(F)(F)F)cc2n1` [Compound 217, 2-(5-(ethylsulfonyl)-6-(2-(trifluoromethyl)pyrazolo[1,5-a]pyrimidin-5-yl)pyridin-2-yl)acetonitrile] the mortality at 300 ppm [1] was at least 70%.

For `CCS(=O)(=O)c1ccc(N(C)C2CC2)nc1-c1ccn2nc(C(F)(F)F)nc2n1` [Compound 176, N-cyclopropyl-5-(ethylsulfonyl)-N-methyl-6-(2-(trifluoromethyl)-[1,2,4]triazolo[1,5-a]pyrimidin-5-yl)pyridin-2-amine], the mortality at 300 ppm [1] was at least 70%.

Work on `CCS(=O)(=O)c1ccc(-c2ccc(Cl)cc2)nc1-c1ccn2nc(C(F)(F)F)cc2n1` [Compound 20, 5-(6-(4-chlorophenyl)-3-(ethylsulfonyl)pyridin-2-yl)-2-(trifluoromethyl)pyrazolo[1,5-a]pyrimidine] yielded a mortality at 300 ppm [1] of at least 70%.

In the case of `CCS(=O)(=O)c1ccc(/C=C/C2CC2)nc1-c1ccn2nc(C(F)(F)F)cc2n1` [Compound 216, (E)-5-(6-(2-cyclopropylvinyl)-3-(ethylsulfonyl)pyridin-2-yl)-2-(trifluoromethyl)pyrazolo[1,5-a]pyrimidine], the mortality at 300 ppm [1] is reported as at least 70%.

For `CCS(=O)(=O)c1cc(-c2ccc(Cl)cc2)cnc1-c1ncc2nc(C(F)(F)F)n(C)c2n1` [Compound 123, 2-(5-(4-chlorophenyl)-3-(ethylsulfonyl)pyridin-2-yl)-9-methyl-8-(trifluoromethyl)-9H-purine], the mortality at 300 ppm [1] was at least 70%.

Molecule `CCS(=O)(=O)c1cc(-c2nccs2)cnc1-c1ccn2nc(C(F)(F)F)nc2n1` [Compound 132, 2-(5-(ethylsulfonyl)-6-(2-(trifluoromethyl)-[1,2,4]triazolo[1,5-a]pyrimidin-5-yl)pyridin-3-yl)thiazole] has a mortality at 300 ppm [1] of at least 70%.

`CCc1ccc(S(=O)(=O)CC)c(-c2ccn3nc(C(F)(F)F)cc3n2)n1` [Compound 209, 5-(6-ethyl-3-(ethylsulfonyl)pyridin-2-yl)-2-(trifluoromethyl)pyrazolo[1,5-a]pyrimidine] showed a mortality at 300 ppm [1] of at least 70%.

`CCS(=O)(=O)c1cc(NC2CC2)cnc1-c1ccn2nc(C(F)(F)F)cc2n1` [Compound 170, N-cyclopropyl-5-(ethylsulfonyl)-6-(2-(trifluoromethyl)pyrazolo[1,5-a]pyrimidin-5-yl)pyridin-3-amine] gave a mortality at 300 ppm [1] of at least 70%.

`CCS(=O)(=O)c1cc(-c2cc(C(F)(F)F)nn2C)cnc1-c1ncc2nc(C(F)(F)F)n(C)c2n1` [Compound 121, 2-(3-(ethylsulfonyl)-5-(1-methyl-3-(trifluoromethyl)-1H-pyrazol-5-yl)pyridin-2-yl)-9-methyl-8-(trifluoromethyl)-9H-purine] showed a mortality at 300 ppm [1] of at least 70%.
